Laboratory results: patent publication US20150315218A1, “SALTS OF PRODRUGS OF PIPERAZINE AND SUBSTITUTED PIPERIDINE ANTIVIRAL AGENTS” (Bristol-Myers Squibb Company, priority 2004, published 2015)
Read-outs that look alike come from different tables or passages of the source.

Tests used:
[1] = Single-dose toxicokinetic and tolerability study of prodrugs in dogs; type: in vivo, dog; details: for AUC(0-inf) / concentration at 24 h / Cmax: dog, plasma; for concentration at 24 h: read-out: C24h
Procedure: A multi-phase study was conducted to evaluate the tolerability of the prodrug, Iab (monolysine salt) at dosages of 24, 90, or 240 mg/kg (free acid, molar equivalent to 19, 71, or 190 mg/kg of parent IVa, respectively) and the toxicokinetics of lab and IVa (4). Iab was administered to two female dogs/group once daily either as an aqueous solution (24 or 90 mg/kg) or dry-filled capsules (24, 90 [once and twice daily] or 240 mg/kg). The endpoints were: clinical signs, body weight, food consumption, and plasma toxicokinetics of lab and IVa. In all cases, a 1-week washout period was used between doses for all phases of the study. […]
On day 1, Icb was administered to one dog/sex/group once daily in dry-filled capsules at the above dosages. A 1-week washout period was used between doses in the study. On day 8, Icb was administered to one dog/sex/group once daily as an aqueous solution at 25 mg/kg or twice daily in dry-filled capsules at 46 or 125 mg/kg BID.

[2] = Single-dose oral toxicokinetic study of prodrugs in rats; type: in vivo, rat; details: for concentration at 24 h / Cmax / AUC: male, CD, rat, plasma; for concentration at 24 h: oral, read-out: C24 h; for Cmax / AUC: po
Procedure: A 1-day oral toxicokinetic study in rats was conducted using the prodrug Iab (monolysine salt). Iab was administered at dosages of 16, 72, and 267 mg/kg (free acid) by oral gavage to three male rats/group using water as the vehicle (solution formulation). The dosages of prodrug free acid correspond to IVa (parent) molar equivalent dosages of 13, 57, and 211 mg/kg, respectively. The endpoint evaluated was plasma toxicokinetics of Iab and IVa in the individual rats.
A 1-day oral toxicokinetic study in rats was conducted by using the prodrug Ibb (monolysine salt). Ibb was administered at dosages of 19, 64, and 236 mg/kg (free acid) by oral gavage to three male rats/group using water as the vehicle (solution formulation).
A 1-day oral toxicokinetic study in rats was conducted using the prodrug Icb (disodium salt). Icb was administered at dosages of 5, 25, and 200 mg/kg (free acid) by oral gavage to three male rats/group using water as the vehicle (solution formulation).

[3] = IV and PO pharmacokinetic studies of prodrug salts (Iab, Ibb, Icb) in the rat, with historical parent data; type: in vivo, Sprague-Dawley rats
Procedure: All blood samples (0.3 mL) were colleted in microtainers containing K2EDTA (Becton Dickinson, Franklin Lakes, N.J.) and placed on chipped ice. After centrifugation, plasma was separated and stored at −20° C. until analysis. The mono-lysine salt of Iab (Form 3, Lot 1) was used for the pharmacokinetic studies. The dosing solutions of Iab were prepared in either sterile water (for IV administration in dogs and monkeys) or distilled water (for all other dose administration).
Male Sprague-Dawley rats (300-350 g, Hilltop Lab Animals, Inc., Scottsdale, Pa.) with cannulas implanted in the jugular vein were used. The rats were fasted overnight in the PO pharmacokinetic studies. Blood samples were collected from the jugular vein.
In the IV study, Iab was delivered at 1.4 mg/kg (free acid, or 1.1 mg/kg of IVa equivalent) as a bolus over 0.5 min (n=3).
In the PO study, Iab was administered at 7.9 mg/kg (free acid, or 6.3 mg/kg of IVa equivalent) by oral gavage (n=3). The concentration of the dosing solution was 4.0 mg/mL, and the dosing volume was 2 mL/kg.
The pharmacokinetic parameters of Iab and IVa were calculated by Non-Compartmental Analysis using the […]™ software program (version 4.0.2, InnaPhase Co., Philadelphia, Pa.). The Cmax and Tmax values were recorded directly from experimental observations. The AUC0-n and AUCtot values were calculated using the mixed log-linear trapezoidal summations. The total body clearance (Cl), mean residence time (MRT), and the steady state volume of distribution (Vss) were also calculated after intravenous administration. The absolute oral bioavailability (expressed as %) was estimated by taking the ratio of dose-normalized AUC values after oral doses to those after intravenous doses.
All blood samples (0.3 mL) were colleted in microtainers containing K2EDTA (Becton Dickinson, Franklin Lakes, N.J.) and placed on chipped ice. After centrifugation, plasma was separated and stored at −20° C. until analysis. The mono-lysine salt of Ibb (Form 3) was used for the pharmacokinetic studies. The dosing solutions of Ibb were prepared in either sterile water (for IV administration in dogs and monkeys) or distilled water (for all other dose administration).
(§1) The Cmax and Tmax values were recorded directly from experimental observations. The AUC0-n and AUCtot values were calculated using the mixed log-linear trapezoidal summations. The total body clearance (Cl), mean residence time (MRT), and the steady state volume of distribution (Vss) were also calculated after intravenous administration. The absolute oral bioavailability (expressed as %) was estimated by taking the ratio of dose-normalized AUC values after oral doses to those after intravenous doses.
In the IV study, Icb was delivered at 1.4 mg/kg (free acid, or 1.1 mg/kg of IVe equivalent) as a bolus over 0.5 min (n=3).
In the PO study, Icb was administered at 6.9 mg/kg (free acid, or 5.6 mg/kg of IVe equivalent) by oral gavage (n=3).
as §1

[4] = female, 25 mg/kg, dog 2201F, day 8, Icb 25 mg/kg QD aqueous solution
[5] = female, po, 25 mg/kg, dog 2201F, day 1, Icb 25 mg/kg (IVc equiv. 20) QD dry-filled capsules
[6] = female, po, 46 mg/kg, dog 3201F, day 8, Icb 46 mg/kg BID dry-filled capsules
[7] = female, po, 92 mg/kg, dog 3201F, day 1, Icb 92 mg/kg (IVc equiv. 75) QD dry-filled capsules
[8] = female, po, 125 mg/kg, dog 4201F, day 8, Icb 125 mg/kg BID dry-filled capsules, emesis
[9] = female, po, 250 mg/kg, dog 4201F, day 1, Icb 250 mg/kg (IVc equiv. 203) QD dry-filled capsules, emesis
[10] = male, 25 mg/kg, dog 2101M, day 8, Icb 25 mg/kg QD aqueous solution
[11] = male, po, 25 mg/kg, dog 2101M, day 1, Icb 25 mg/kg (IVc equiv. 20) QD dry-filled capsules
[12] = male, po, 46 mg/kg, dog 3101M, day 8, Icb 46 mg/kg BID dry-filled capsules
[13] = male, po, 92 mg/kg, dog 3101M, day 1, Icb 92 mg/kg (IVc equiv. 75) QD dry-filled capsules, emesis
[14] = male, po, 125 mg/kg, dog 4101M, day 8, Icb 125 mg/kg BID dry-filled capsules, emesis
[15] = male, po, 250 mg/kg, dog 4101M, day 1, Icb 250 mg/kg (IVc equiv. 203) QD dry-filled capsules, emesis

COc1cnc(-n2cnc(C)n2)c2[nH]cc(C(=O)C(=O)N3CCN(C(=O)c4ccccc4)CC3)c12 [IVc]
time post-second dose at which mean Cmax of parent was achieved ([1]; dogs, BID dosing of prodrug): 1 to 2 h | time post-dose at which mean Cmax of parent was achieved ([1]; dogs, once daily (QD) dosing of prodrug): 1 to 2 h | AUC(0-inf) [1, 4]: 173 µM·h | concentration at 24 h [1, 4]: 0.107 µM | concentration at 24 h ([1]; female, oral, 25 mg/kg, dog 2201F, day 1, Icb 25 mg/kg (IVc equiv. 20) QD dry-filled capsules): 0.688 µM | Cmax ([1]; female, oral, 25 mg/kg, dog 2201F, day 8, Icb 25 mg/kg QD aqueous solution): 46.8 µM | concentration at 24 h ([1]; female, oral, 46 mg/kg, dog 3201F, day 8, Icb 46 mg/kg BID dry-filled capsules): 0.307 µM | concentration at 24 h ([1]; female, oral, 92 mg/kg, dog 3201F, day 1, Icb 92 mg/kg (IVc equiv. 75) QD dry-filled capsules): 0.202 µM | concentration at 24 h ([1]; female, oral, 125 mg/kg, dog 4201F, day 8, Icb 125 mg/kg BID dry-filled capsules): 1.96 µM | concentration at 24 h ([1]; female, oral, 250 mg/kg, dog 4201F, day 1, Icb 250 mg/kg (IVc equiv. 203) QD dry-filled capsules): 0.704 µM | AUC(0-inf) [1, 5]: 122 µM·h | Cmax [1, 5]: 24.6 µM | AUC(0-inf) [1, 6]: 490 µM·h | Cmax [1, 6]: 104 µM | AUC(0-inf) [1, 7]: 730 µM·h | Cmax [1, 7]: 157 µM | AUC(0-inf) [1, 8]: 596 µM·h | Cmax [1, 8]: 96.9 µM | AUC(0-inf) [1, 9]: 523 µM·h | Cmax [1, 9]: 88.9 µM | AUC(0-inf) [1, 10]: 362 µM·h | concentration at 24 h [1, 10]: 0.547 µM | concentration at 24 h ([1]; male, oral, 25 mg/kg, dog 2101M, day 1, Icb 25 mg/kg (IVc equiv. 20) QD dry-filled capsules): 0.008 µM | Cmax ([1]; male, oral, 25 mg/kg, dog 2101M, day 8, Icb 25 mg/kg QD aqueous solution): 59.4 µM | concentration at 24 h ([1]; male, oral, 46 mg/kg, dog 3101M, day 8, Icb 46 mg/kg BID dry-filled capsules): 10.6 µM | concentration at 24 h ([1]; male, oral, 92 mg/kg, dog 3101M, day 1, Icb 92 mg/kg (IVc equiv. 75) QD dry-filled capsules): 1.9 µM | concentration at 24 h ([1]; male, oral, 125 mg/kg, dog 4101M, day 8, Icb 125 mg/kg BID dry-filled capsules): 54.2 µM | concentration at 24 h ([1]; male, oral, 250 mg/kg, dog 4101M, day 1, Icb 250 mg/kg (IVc equiv. 203) QD dry-filled capsules): 2.61 µM | AUC(0-inf) [1, 11]: 365 µM·h | Cmax [1, 11]: 65.1 µM | AUC(0-inf) [1, 12]: 1140 µM·h | Cmax [1, 12]: 121 µM | AUC(0-inf) [1, 13]: 820 µM·h | Cmax [1, 13]: 117 µM | AUC(0-inf) [1, 14]: 3780 µM·h | Cmax [1, 14]: 226 µM | AUC(0-inf) [1, 15]: 739 µM·h | Cmax [1, 15]: 92.6 µM | concentration at 24 h ([2]; 5 mg/kg): 0.029 µM | concentration at 24 h ([2]; 25 mg/kg): 0.35 µM | concentration at 24 h ([2]; 200 mg/kg): 58 µM | Cmax ([2]; 5 mg/kg): 29 µM | AUC ([2]; 5 mg/kg, read-out: AUC from zero to ∞): 109 µM·h | Cmax ([2]; 25 mg/kg): 98 µM | AUC ([2]; 25 mg/kg, read-out: AUC from zero to ∞): 586 µM·h | AUC ([2]; 200 mg/kg): 2920 µM·h | Cmax ([2]; 200 mg/kg): 281 µM | time post-dose at which mean maximum plasma concentration (Cmax) was achieved ([2]; rats, single oral dose of prodrug): ≤ 1.7 h | AUCtot ([3]; PO IVc 5 mg/kg, historical IVc): 111 ± 25 µM·h | bioavailability ([3]; Sprague-Dawley, plasma, historical parent, PO 5 mg/kg, read-out: Bioavailability (%)): 82% | Tmax ([3]; Sprague-Dawley, plasma, historical parent, PO 5 mg/kg, read-out: Tmax (hr), PO): 4 h | bioavailability ([3]; male, Sprague-Dawley, plasma, oral prodrug, calculated from historical IV data of parent, read-out: Bioavailability (%) of parent from prodrug): 80% | bioavailability ([3]; male, Sprague-Dawley, plasma, oral, […], read-out: Bioavailability): 80% | Tmax ([3]; male, Sprague-Dawley, plasma, parent after oral prodrug (~5-6 mg/kg parent equivalent), read-out: Tmax (hr), PO): 0.8 h | Tmax ([3]; male, Sprague-Dawley, plasma, po, […], read-out: Tmax): 0.8 ± 0.3 h | AUC ([3]; plasma, iv, 1 mg/kg, read-out: AUCtot): 27 ± 4 µM·h | MRT ([3]; plasma, iv, 1 mg/kg, read-out: MRT): 4.5 ± 0.77 h | Vd ([3]; plasma, iv, 1 mg/kg, read-out: Vdss): 0.36 ± 0.098 L/kg | concentration at 24 hr ([3]; plasma, oral, 5 mg/kg, read-out: C-24 hr): 0.19 ± 0.048 µM | bioavailability ([3]; plasma, po, 5 mg/kg, read-out: Bioavailability): 82% | Cmax ([3]; plasma, po, 5 mg/kg, read-out: Cmax): 13 ± 3.6 µM | Tmax ([3]; plasma, po, 5 mg/kg, read-out: Tmax): 4 h | bioavailability ([3]; plasma, po, range over rats, dogs and monkeys, read-out: oral bioavailabilities of parent after administration of prodrug): 80 to 122%
